Reference: ChEMBL document CHEMBL6120991, “Chromones Featuring a [6,6]-Spiroketal Moiety Produced by Coculture of the Endophytic Fungi Chaetomium virescens and Xylaria Grammica” (J Nat Prod, 2025)
The source made the active and inactive calls. No cut-off for these calls is given here.

How the values were obtained:
SW620/AD300 [1] = experiment: Cytotoxicity against multidrug resistant human SW620/AD300 cells assessed as inhibition of cell viability at 20 uM measured after 72 hrs in presence of paclitaxel by CCK-8 method relative to control; type: functional
[2] = target: ATP-dependent translocase ABCB1 (Homo sapiens, UniProt P08183); experiment: Induction of thermal stabilization of P-gp in multidrug resistant human SW620/AD300 cells at 20 uM incubated for 30 mins by CESTA analysis; type: cell-based; settings: sw620/ad300, 0.5 h
Chain of ATP-dependent translocase ABCB1 (P08183 whole entry): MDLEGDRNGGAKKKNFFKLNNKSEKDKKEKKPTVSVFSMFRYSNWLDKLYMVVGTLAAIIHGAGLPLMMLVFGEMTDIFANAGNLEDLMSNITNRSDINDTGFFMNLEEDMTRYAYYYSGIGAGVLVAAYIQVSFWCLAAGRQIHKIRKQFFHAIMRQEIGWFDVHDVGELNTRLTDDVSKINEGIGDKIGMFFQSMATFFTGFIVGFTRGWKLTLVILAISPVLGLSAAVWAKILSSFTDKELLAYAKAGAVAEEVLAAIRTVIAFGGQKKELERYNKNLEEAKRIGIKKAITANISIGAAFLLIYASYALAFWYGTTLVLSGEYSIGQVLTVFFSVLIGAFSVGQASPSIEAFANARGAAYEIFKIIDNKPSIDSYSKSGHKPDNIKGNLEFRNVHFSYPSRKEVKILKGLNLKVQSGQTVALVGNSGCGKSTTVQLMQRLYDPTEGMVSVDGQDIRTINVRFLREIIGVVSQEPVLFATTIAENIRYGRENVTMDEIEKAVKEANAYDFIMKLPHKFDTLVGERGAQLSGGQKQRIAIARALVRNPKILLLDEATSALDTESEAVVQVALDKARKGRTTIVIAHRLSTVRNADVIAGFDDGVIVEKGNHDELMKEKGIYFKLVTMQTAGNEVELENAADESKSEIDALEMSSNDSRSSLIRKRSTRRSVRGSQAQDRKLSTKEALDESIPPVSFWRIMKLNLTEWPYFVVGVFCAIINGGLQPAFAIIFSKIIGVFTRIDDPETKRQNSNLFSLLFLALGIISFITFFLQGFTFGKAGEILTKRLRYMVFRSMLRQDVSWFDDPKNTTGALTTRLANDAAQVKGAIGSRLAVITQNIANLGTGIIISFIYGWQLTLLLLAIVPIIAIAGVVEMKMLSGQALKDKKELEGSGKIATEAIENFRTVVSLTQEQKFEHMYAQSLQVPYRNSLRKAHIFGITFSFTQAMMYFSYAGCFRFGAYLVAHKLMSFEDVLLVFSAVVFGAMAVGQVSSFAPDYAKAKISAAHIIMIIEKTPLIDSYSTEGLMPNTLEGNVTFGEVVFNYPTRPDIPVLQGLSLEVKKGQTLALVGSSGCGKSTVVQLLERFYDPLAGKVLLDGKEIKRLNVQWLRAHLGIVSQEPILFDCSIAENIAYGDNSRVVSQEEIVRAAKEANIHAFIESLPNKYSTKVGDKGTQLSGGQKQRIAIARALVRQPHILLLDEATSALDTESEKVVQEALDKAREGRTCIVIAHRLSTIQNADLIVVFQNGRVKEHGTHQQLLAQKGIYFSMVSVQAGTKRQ

SW620/AD300 [3] = experiment: Reversal of multi-drug resistance in human SW620/AD300 cells assessed as decrease in colony number at 20 uM presence of 1 uM of paclitaxel incubated for 7 days by crystal violet staining based analysis; type: functional, cell-based; settings: time 7.0 day
SW620/AD300 [4] = experiment: Reversal of multi-drug resistance in human SW620/AD300 cells assessed as decrease in colony number at 20 uM presence of 0.25 uM of paclitaxel incubated for 7 days by crystal violet staining based analysis; type: functional, cell-based; settings: time 7.0 day
SW620/AD300 [5] = experiment: Inhibition of colony formation in human SW620/AD300 cells assessed as decrease in colony number at 20 uM incubated for 7 days by crystal violet staining based analysis; type: functional, cell-based; settings: time 7.0 day
SW620/AD300 [6] = experiment: Reversal of multi-drug resistance in human SW620/AD300 cells assessed as decrease in frequency of cells in G0/G1 phase at 20 uM presence of 1 uM of paclitaxel incubated for 24 hrs by PI staining based flow cytometry analysis; type: functional, cell-based
SW620/AD300 [7] = experiment: Reversal of multi-drug resistance in human SW620/AD300 cells assessed as increase in frequency of cells in G2/M phase at 20 uM presence of 1 uM of paclitaxel incubated for 24 hrs by PI staining based flow cytometry analysis; type: functional, cell-based
SW620/AD300 [8] = experiment: Cytotoxicity against multidrug resistant human SW620/AD300 cells assessed as inhibition of cell viability at 1 uM measured after 72 hrs by CCK-8 method relative to control; type: functional
SW620/AD300 [9] = experiment: Inhibition of colony formation in human SW620/AD300 cells assessed as decrease in colony number at 1 uM incubated for 7 days by crystal violet staining based analysis; type: functional, cell-based; settings: time 7.0 day

Compound | inhibition at 20 µM (SW620/AD300 [1]) [%] | further results
COc1cc2oc(C)cc(=O)c2c2c1C[C@H](C)[C@@]1(O2)O[C@@H](C)CCC1=O | 24.5 | 
COc1cc2oc(C)cc(=O)c2c2c1C[C@@H](C)[C@@]1(C[C@H](OC)C[C@H](C)O1)O2 | 77.8 | Activity [2]: Active; Activity (SW620/AD300 [3]): Active; Activity (SW620/AD300 [4]): Active; inhibition (SW620/AD300 [5]): inactive; Activity (SW620/AD300 [6]): Active; Activity (SW620/AD300 [7]): Active
COc1cc2oc(C)cc(=O)c2c2c1C[C@@H](C)[C@@]1(O2)O[C@@H](C)C[C@H](O)[C@@H]1O | 19.6 | 
CC(=O)O[C@H]1C(=O)[C@@]2(C)[C@H]([C@H](OC(=O)c3ccccc3)[C@]3(O)C[C@H](OC(=O)[C@H](O)[C@@H](NC(=O)c4ccccc4)c4ccccc4)C(C)=C1C3(C)C)[C@]1(OC(C)=O)CO[C@@H]1C[C@@H]2O [PACLITAXEL] |  | inhibition at 1 µM (SW620/AD300 [8]): 1.1%; inhibition (SW620/AD300 [9]): inactive
COc1cc2oc(CO)cc(=O)c2c2c1C[C@@H](C)[C@@]1(O2)O[C@@H](C)C[C@H](O)[C@@H]1O | 11.2 | 
COc1cc2oc(CO)cc(=O)c2c2c1C[C@@H](C)[C@@]1(C[C@@H](NCC/C(C)=C/C(=O)O)C[C@H](C)O1)O2 | 46.4 | 
COc1cc2oc(C)cc(=O)c2c2c1CC[C@@]1(O2)O[C@@H](C)C[C@H](O)[C@@H]1O | 3.1 | 
COc1cc2oc(C)cc(=O)c2c2c1C[C@H](C)[C@@]1(O2)O[C@@H](C)C[C@H](O)[C@@H]1O | 22 | 
COc1cc2oc(C)cc(=O)c2c2c1CC(C)C1(O2)OC(C)CC(O)C1O (stereo not given) | 11.1 | 
COc1cc2oc(CO)cc(=O)c2c2c1C[C@H](C)[C@@]1(O2)O[C@@H](C)C[C@H](O)[C@@H]1O | 15.3 | 
COc1cc2oc(C)cc(=O)c2c2c1C[C@H](C)[C@@]1(C[C@H](OC)C[C@H](C)O1)O2 | 29.2 | 
COc1cc2oc(C)cc(=O)c2c2c1C[C@@H](C)[C@@]1(C[C@H](O)C[C@H](C)O1)O2 | 0.2 | 
COc1cc2oc(C)cc(=O)c2c2c1C[C@@H](C)[C@@]1(C[C@@H](O)C[C@H](C)O1)O2 | 10 | 
